Experiment [1] has as its system bacteria of endotracheal aspirate, sputum, BAL, wound swab from patients with ventilator associated pneumonia. The experiment can be described thus: Signs of bacterial growth on multi-well agar test system supplemented with antibiotics (naked eye or microscopy). The format is cell-based. Here is the method: Endotracheal aspirate (n=3), sputum (n=3), BAL (n=2), wound swab (n=3) from patients with ventilator associated pneumonia were resuspended in PBS and 0.15 μL were plated on 24 well plate test system filled with Mixed medium (Columbia agar +Pepted Meat agar) (MM), Luria Broth (LB) agar, Pepted Meat agar (PMA), Columbia agar (CA), or Schaedler agar (SA).
Two wells were antibiotic free.
Biosamples were plated to the medium with a sterile swab with a slight pressure to the agar and making circular movements. Plates was incubated at 37 C and the analysis of the of microbial growth was monitored every 15 minutes from […] to 5 h, then hourly from 5 h to 8 h and then at 18 and 24 h post plating with a naked eye or with an AmScope microscope on 20× magnification with 12 mp camera.
Three methods (algorithms) how to analyze bacterial growth were used.
Method (Algorithm) #1. Lab technician, analyzed the appearance of bacterial growth by comparing the signs of bacterial growth in each well supplemented with antibiotic(s) at certain timepoint, with the signs of bacterial growth in the same well at previous time point(s).
Method (Algorithm)#2. Lab technician analyzed the appearance of bacterial growth by comparing the signs of bacterial growth in each well supplemented with antibiotic(s) with bacterial growth in antibiotic-free control
Method (Algorithm) #3. Lab technician analyzed the absence of bacterial growth in the wells in fixed time period of 3.0 h, 3.5 h; 4 h and 24 h.

For experiment [2], the system named is C. albicans, non-albicans Candida spp. Aspergillus spp. in oral swabs from patients with oral candidiasis. The experiment can be described thus: Signs of fungal growth on 12 well plate test system supplemented with antifungal antibiotics. Conditions: naked eye examination, samples resistant to the antibiotic. The format is cell-based. As to the method:
Oral swabs (n=6) from patients with confirmed oral candidiasis caused by C. albicans, non-albicans Candida spp. Aspergillus spp., were dissolved with PBS and 0.1 uL were plated on 12 well plate test system filled with Mixed Medium 1 (see above), Mixed Medium 2 (Sabouraud agar+Potato Dextrose Agar+vitamins B12+B7) (MM2), Sabouraud agar (SA), Potato Dextrose Agar (PDA), Sabouraud's Heart Infusion (SABHI) agar. 11 wells were filled with media supplemented with antibiotics (taken at mean concentration of each antibiotic achieved in lungs at different timpoints post drug administration)—Nystatin, Amphotericin B, Clotrimazole, Fluconazole, Isavuconazole, Terbinafin, Posaconazole, Voriconazole, Anidulafungin, Caspofungin, Micafungin. One well was antibiotic free.
Plates was incubated at 30 C and the analysis of the presence/absence of microbial growth was monitored every 15 minutes from […] to 5 h, then hourly from 5 h to 8 h and then at 18 and 24 h post plating with a naked eye.
Three methods (algorithms) how to analyze fungal growth were used.
Method (Algorithm) #1. Lab technician, analyzed the appearance of fungal growth by comparing the signs of fungal growth in each well supplemented with antibiotic(s) at certain timepoint, with the signs of funal growth in the same well at previous time point(s).
Method (Algorithm)#2. Lab technician analyzed the appearance of fungal growth by comparing the signs of fungal growth in each well supplemented with antibiotic(s) with fungal growth in antibiotic-free control
Method (Algorithm) #3. Lab technician analyzed the absence of fungal growth in the wells in fixed time period of 3.5 h; 5 h and 24 h.

[3] abbreviates: Method (Algorithm) #1, MM1 medium.
[4] abbreviates: Method (Algorithm) #1, MM2 medium.
Where [5] appears, read: Method (Algorithm) #1, PDA medium.
Setting [6] is: Method (Algorithm) #1, SA (Sabouraud agar).
[7] abbreviates: Method (Algorithm) #1, SABHI medium.
Setting [8] is: Method (Algorithm) #2, MM1 medium.
[9] abbreviates: Method (Algorithm) #2, MM2 medium.
The mark [10] stands for this setting: Method (Algorithm) #2, PDA medium.
Where [11] appears, read: Method (Algorithm) #2, SA (Sabouraud agar).
Setting [12] is: Method (Algorithm) #2, SABHI medium.

The record followed here is patent US20240182945A1, “PRODUCTS FOR REGULATION OF EUKARYOTIC AND MICROBIAL CELLS GROWTH” (priority 2021, published 2024).

Starred links: 1 amine or outer side, 2 acyl side, 3 side chain; linkers in the order of their positions; H or OH if unused. Positions of bridges follow the written chain, without caps; N, C: chain ends. Non-standard residues stand in square brackets, D forms with d. Residues, ends and D or L forms follow the SMILES beside them. *: point of attachment. pTerphenylCO(4''-OnC5H11) = CCCCCOc1ccc(-c2ccc(-c3ccc(C(=O)*)cc3)cc2)cc1; Orn(4R-OH,5R-OH) = O=C([C@H](C[C@@H](O)[C@@H](O)N[*:3])N[*:1])[*:2]; hTyr(3S-OH,4S-OH) = N[C@H](C(=O)O)[C@H](O)[C@@H](O)c1ccc(O)cc1; Pro(3S-OH,4S-Me) = C[C@H]1CN[C@H](C(=O)O)[C@H]1O; Hyp = O=C(O)[C@@H]1C[C@@H](O)CN1

In the case of Piperacillin-tazobactam, the “Mean hour at which bacterial growth became visible on the wells supplemented with a certain antibiotic” value came out at 3.5 h in experiment [1] (microscopy examination, Method (Algorithm) #1, CA medium); 4 h in experiment [1] (microscopy examination, Method (Algorithm) #1, LB medium); 3.5 h in experiment [1] (microscopy examination, Method (Algorithm) #1, MM medium); 3.5 h in experiment [1] (microscopy examination, Method (Algorithm) #1, PMA medium); 3.5 h in experiment [1] (microscopy examination, Method (Algorithm) #1, SA medium); 3.5 h in experiment [1] (microscopy examination, Method (Algorithm) #2, CA medium). Also, the “Mean hour at which bacterial growth became visible on the wells supplemented with a certain antibiotic” value came out at 4 h in experiment [1] (microscopy examination, Method (Algorithm) #2, LB medium); 4 h in experiment [1] (microscopy examination, Method (Algorithm) #2, MM medium); 4 h in experiment [1] (microscopy examination, Method (Algorithm) #2, PMA medium); 3.5 h in experiment [1] (microscopy examination, Method (Algorithm) #2, SA medium); 3.5 h in experiment [1] (naked eye examination, Method (Algorithm) #1, CA medium, samples resistant to the antibiotic); 4 h in experiment [1] (naked eye examination, Method (Algorithm) #1, LB medium, samples resistant to the antibiotic). Further, the “Mean hour at which bacterial growth became visible on the wells supplemented with a certain antibiotic” value was found to be 3.5 h in experiment [1] (naked eye examination, Method (Algorithm) #1, MM medium, samples resistant to the antibiotic); 3.5 h in experiment [1] (naked eye examination, Method (Algorithm) #1, PMA medium, samples resistant to the antibiotic); 4 h in experiment [1] (naked eye examination, Method (Algorithm) #1, SA medium, samples resistant to the antibiotic); 5.5 h in experiment [1] (naked eye examination, Method (Algorithm) #2, CA medium, samples resistant to the antibiotic); 5 h in experiment [1] (naked eye examination, Method (Algorithm) #2, LB medium, samples resistant to the antibiotic); 4 h in experiment [1] (naked eye examination, Method (Algorithm) #2, MM medium, samples resistant to the antibiotic). In addition, the “Mean hour at which bacterial growth became visible on the wells supplemented with a certain antibiotic” value in experiment [1] (naked eye examination, Method (Algorithm) #2, PMA medium, samples resistant to the antibiotic) was determined as 4 h; in experiment [1] (naked eye examination, Method (Algorithm) #2, SA medium, samples resistant to the antibiotic), 5.5 h.
Turning to `C[C@@H](c1nc(-c2ccc(C#N)cc2)cs1)[C@](O)(Cn1cncn1)c1cc(F)ccc1F` [Isavuconazole], the “Mean hour at which fungal growth became visible on the wells supplemented with a certain antibiotic” value in experiment [2] (setting [3]) amounted to 5 h; in experiment [2] (setting [4]), 4.5 h; in experiment [2] (setting [5]), 6 h; in experiment [2] (setting [6]) it was 6.5 h; in experiment [2] (setting [7]), 7 h; in experiment [2] (setting [8]), 6 h. Moreover, the “Mean hour at which fungal growth became visible on the wells supplemented with a certain antibiotic” value in experiment [2] (setting [9]) is 5.5 h; in experiment [2] (setting [10]), 7.5 h; in experiment [2] (setting [11]) it was 7.5 h; in experiment [2] (setting [12]), 8.5 h.
Regarding `CC[C@@H]([C@H](C)O)n1ncn(-c2ccc(N3CCN(c4ccc(OC[C@@H]5CO[C@@](Cn6cncn6)(c6ccc(F)cc6F)C5)cc4)CC3)cc2)c1=O` [Posaconazole], the “Mean hour at which fungal growth became visible on the wells supplemented with a certain antibiotic” value in experiment [2] (setting [3]) worked out at 3.5 h; in experiment [2] (setting [4]), 4.5 h; in experiment [2] (setting [5]), 5 h; in experiment [2] (setting [6]), 5 h; in experiment [2] (setting [7]) it was 5.5 h; in experiment [2] (setting [8]), 4.5 h. Besides, the “Mean hour at which fungal growth became visible on the wells supplemented with a certain antibiotic” value in experiment [2] (setting [9]) was 5 h; in experiment [2] (setting [10]), 8.5 h; in experiment [2] (setting [11]), 7 h; in experiment [2] (setting [12]) it was 7 h.
On to `C[C@@H]1[C@H](O)[C@@H](C)/C=C/C=C/C=C/C=C/C=C/C=C/C=C/[C@H](O[C@@H]2O[C@H](C)[C@@H](O)[C@H](N)[C@@H]2O)C[C@@H]2O[C@](O)(C[C@@H](O)C[C@@H](O)[C@H](O)CC[C@@H](O)C[C@@H](O)CC(=O)O[C@H]1C)C[C@H](O)[C@H]2C(=O)O` [Amphotericin B], for which the “Mean hour at which fungal growth became visible on the wells supplemented with a certain antibiotic” value in experiment [2] (setting [3]) was found to be 3 h; in experiment [2] (setting [4]), 5 h; in experiment [2] (setting [5]), 4.5 h; in experiment [2] (setting [6]), 6.5 h; in experiment [2] (setting [7]) it was 6 h; in experiment [2] (setting [8]), 5 h. Moreover, the “Mean hour at which fungal growth became visible on the wells supplemented with a certain antibiotic” value in experiment [2] (setting [9]) stood at 5 h; in experiment [2] (setting [10]) it was 7.5 h; in experiment [2] (setting [11]), 7 h; in experiment [2] (setting [12]), 8 h.
Turning to `CCCCCOc1ccc(-c2ccc(-c3ccc(C(=O)N[C@H]4C[C@@H](O)[C@@H](O)NC(=O)[C@@H]5[C@@H](O)[C@@H](C)CN5C(=O)[C@H]([C@@H](C)O)NC(=O)[C@H]([C@H](O)[C@@H](O)c5ccc(O)cc5)NC(=O)[C@@H]5C[C@@H](O)CN5C(=O)[C@H]([C@@H](C)O)NC4=O)cc3)cc2)cc1` [Anidulafungin] ({pTerphenylCO(4''-OnC5H11)}-[Orn(4R-OH,5R-OH)]T[Hyp][hTyr(3S-OH,4S-OH)]T[Pro(3S-OH,4S-Me)]; lactam 1-C), the “Mean hour at which fungal growth became visible on the wells supplemented with a certain antibiotic” value is 4 h in experiment [2] (setting [3]); 5 h in experiment [2] (setting [4]); 6.5 h in experiment [2] (setting [5]); 5.5 h in experiment [2] (setting [6]); 6.5 h in experiment [2] (setting [7]); 5.5 h in experiment [2] (setting [8]). The “Mean hour at which fungal growth became visible on the wells supplemented with a certain antibiotic” value in experiment [2] (setting [9]) came to 4.5 h; in experiment [2] (setting [10]), 7.5 h; in experiment [2] (setting [11]), 6.5 h; in experiment [2] (setting [12]) it was 8.5 h.
